According to paper PMC6100415, “Hepatic Metabolism of Sakuranetin and Its Modulating Effects on Cytochrome P450s and UDP-Glucuronosyltransferases” (Molecules : A Journal of Synthetic Chemistry and Natural …, 2018):
Where two headings read alike, the source gives them in different places.

Columns and labels:
CYP1A2 = biological target: T1, CYP1A2 (Homo sapiens, UniProt P05177); experiment: CYP inhibition in human liver microsomes, phenacetin O-deethylation (PCOD); type: in vitro ADME; conditions: pH 7.4, probe phenacetin (O-deethylation, PCOD)
T1 sequence (P05177 1-516): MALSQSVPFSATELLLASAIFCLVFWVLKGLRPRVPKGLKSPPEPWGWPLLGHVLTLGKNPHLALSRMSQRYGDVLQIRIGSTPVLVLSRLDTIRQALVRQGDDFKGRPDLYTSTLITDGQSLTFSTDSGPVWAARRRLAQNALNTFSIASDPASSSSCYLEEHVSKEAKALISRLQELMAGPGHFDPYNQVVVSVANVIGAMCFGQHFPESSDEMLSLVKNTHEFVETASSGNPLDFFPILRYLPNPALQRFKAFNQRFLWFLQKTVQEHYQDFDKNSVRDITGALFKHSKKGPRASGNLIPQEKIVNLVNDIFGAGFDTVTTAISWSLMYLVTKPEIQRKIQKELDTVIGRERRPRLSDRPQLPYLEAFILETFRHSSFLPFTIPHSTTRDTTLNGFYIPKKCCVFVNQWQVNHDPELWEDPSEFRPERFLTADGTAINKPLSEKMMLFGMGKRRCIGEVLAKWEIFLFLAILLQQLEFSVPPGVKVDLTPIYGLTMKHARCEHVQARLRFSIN
From the text: (§1) The DAD was set at 280 nm.

[1] = system: various cancer cell lines; conditions: cited from earlier work
CYP2C9 [2] = biological target: T2, CYP2C9 (Homo sapiens, UniProt P11712); experiment: in vitro; conditions: human liver microsomes, pH 7.4, probe diclofenac (4′-hydroxylation, DCHY), 200 µM
T2 sequence (P11712 whole entry): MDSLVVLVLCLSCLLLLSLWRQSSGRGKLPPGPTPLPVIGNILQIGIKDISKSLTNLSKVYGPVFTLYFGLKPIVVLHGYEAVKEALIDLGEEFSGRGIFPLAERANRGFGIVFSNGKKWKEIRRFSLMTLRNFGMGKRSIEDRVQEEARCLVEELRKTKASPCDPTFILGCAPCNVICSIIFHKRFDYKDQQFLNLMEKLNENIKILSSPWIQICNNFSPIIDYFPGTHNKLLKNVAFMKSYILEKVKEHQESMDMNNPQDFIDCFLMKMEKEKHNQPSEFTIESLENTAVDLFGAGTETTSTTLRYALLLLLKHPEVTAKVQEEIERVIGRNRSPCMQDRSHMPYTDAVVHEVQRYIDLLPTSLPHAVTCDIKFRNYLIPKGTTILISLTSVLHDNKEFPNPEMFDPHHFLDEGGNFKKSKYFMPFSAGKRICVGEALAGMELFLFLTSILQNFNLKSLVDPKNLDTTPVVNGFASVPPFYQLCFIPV
Experimental: (§3) The formation of a metabolite from a CYP isozyme-specific phenotyping reaction (Table 4) was monitored. Each substrate (200 μM), along with SKN (10 μM), was incubated with human liver microsomes (0.5 mg/mL) and an NADPH-generating system in 0.1 M potassium phosphate buffer (pH 7.4) at 37 °C for 60 min in a total volume of 200 μL in a shaking water bath. The metabolic reaction was initiated by adding NADP^+ (1 mM) and stopped by adding 10 μL of trichloroacetic acid. In some experiments, the microsomes were pre-incubated with SKN for 15 min prior to the addition of the cofactor, in order to determine the time-dependent inhibitory effect. […] In contrast, co-incubation refers to experiments in which microsomes and cofactors were incubated in the presence of SKN. After centrifugation of incubation samples at 12,000× g for 15 min at 4 °C, the supernatant (20 μL) was injected into an HPLC-DAD system to analyze the metabolites formation (Supplementary Materials).
(§4) The DAD was set at 248 nm for phenacetin O-deethylation (PCOD), 298 nm for bupropion hydroxylation (BPHY), 276 nm for diclofenac 4′-hydroxylation (DCHY), 230 nm for tolbutamide 6-hydroxylation (TOLHY), 280 nm for dextromethorphan O-demethylation (DEXOD), and 250 nm for testosterone 6β-hydroxylation (TSTHY) and testosterone β-D-glucuronidation (TSTG).

CYP2C9 [3] = biological target: T2, CYP2C9; experiment: in vitro; conditions: human liver microsomes, pH 7.4, probe tolbutamide (6-hydroxylation, TOLHY), 200 µM
Experimental: as §3, §4

CYP2C9 [4] = biological target: T2, CYP2C9; experiment: CYP inhibition in human liver microsomes, diclofenac 4′-hydroxylation (DCHY); conditions: CYP2C9, DCHY, SKN 10 μM, 15 min pre-incubation
Experimental: as §3, §4

[5] = NADPH-dependent phase I metabolic stability in human liver microsomes; type: in vitro ADME
Experimental: (§2) Metabolic stability was measured by monitoring the amount of parent compound that remained in an incubation mixture at designated incubation time points. For the phase I metabolism study, SKN (100 μM) was incubated with liver microsomes (1 mg/mL, rat, mouse, and dog; and 0.5 mg/mL, human), and an NADPH-generation cocktail consisting of nicotinamide adenine dinucleotide phosphate (NADP^+, 1 mM), glucose-6-phosphate (5 mM), glucose-6-phosphate dehydrogenase (1 unit/mL), and MgCl2 (10 mM) in potassium phosphate buffer (0.1 M, pH 7.4) in a total volume of 1 mL. To study phase II glucuronide conjugative metabolism, uridine 5′-diphosphoglucuronic acid (UDPGA) (2 mM) was added as a cofactor. The mixture was incubated in a shaking water bath, and the enzyme reaction was initiated by the addition of NADP^+, UDPGA, or both. Aliquots (100 μL) were removed at 0, 5, 15, 30, 45, and 60 min, and the reaction was terminated by adding two volumes of ice-cold methanol. […] The half-life of SKN was obtained by plotting the remaining amount of SKN against time using Prism 3.0 software (GraphPad, La Jolla, CA, USA). Hepatic intrinsic clearance (CLint, hepatic) was calculated using the following formula [20]:CLint, hepatic = (0.693/t1/2) × (g liver weight/kg body weight) × (mL incubation/mg of microsomal protein) × (mg microsomal protein concentration/g of liver)
as §1

[6] = NADPH-dependent phase I metabolic stability in mouse liver microsomes; type: in vitro ADME
Experimental: as §2, §1

[7] = UDPGA-dependent metabolic stability in mouse liver microsomes; type: in vitro ADME; conditions: for half-life at 100 µM / CLint scaled at 100 µM: mouse, pH 7.4, mouse liver microsomes; for CLint scaled at 100 µM: read-out: CLint, hepatic
Experimental: as §2, §1

[8] = NADPH-dependent phase I metabolic stability in dog liver microsomes; type: in vitro ADME
Experimental: as §2, §1

[9] = UDPGA-dependent metabolic stability in rat liver microsomes; type: in vitro ADME; conditions: for CLint scaled at 100 µM: read-out: CLint, hepatic; for half-life at 100 µM: rat, pH 7.4, rat liver microsomes
Experimental: as §2, §1

[10] = system: hPXR-mediated CYP3A4 promoter; experiment: PXR-mediated CYP3A4 promoter luciferase assay in HepG2 cells; type: cell-based, human; conditions: pcDNA3-PXR-transfected HepG cells, SKN 20 μM, 24 h
Experimental: HepG2 cells (American Tissue Culture Collection, Manassas, VA, USA) were maintained in Dulbecco’s modified Eagle’s essential medium (DMEM), containing 10% fetal bovine serum, 1% nonessential amino acids, 1% GlutaMAX®, and 1% antibiotics/antimycotics at 37 °C in a 5% CO2 atmosphere. The expression plasmid encoding the human constitutive androstane receptor (hCAR; pcDNA3-CAR) and the pGL3-CYP2B6 luciferase construct were kindly provided by Dr. Hongbing Wang (University of Maryland, College Park, MD, USA). The plasmid encoding the human pregnane X receptor (hPXR; pcDNA3-PXR) and the pGL3-CYP3A4 luciferase construct were obtained from Dr. Masahiko Negishi at the National Institutes of Health (Bethesda, MD, USA). Cells were seeded at a density of 1.5 × 10^5 cells/well into a 24-well plate. The next day, the cells were transfected with 0.25 μg of either pcDNA3-CAR or pcDNA3-PXR and 0.25 μg of a promoter luciferase plasmid (either pGL3-CYP2B6 or pGL3-CYP3A4) using Lipofectamine 2000 (Invitrogen, Carlsbad, CA, USA) according to the manufacturer’s instructions. […] The cells were harvested and luciferase activity was measured as described previously.

O=C1C[C@@H](c2ccc(O)c(O)c2)Oc2cc(O)cc(O)c21 [Eriodictyol, 3′-hydroxynaringenin]
inhibition at 60 min, 10 µM (CYP1A2; human liver microsomes, 200 µM, inhibitor 10 M [sic], human liver microsomes 0.5 mg/mL, read-out: Inhibition (%)): 15.9 ± 1.8%
anti-proliferative activity compared to naringenin [1]: two-fold higher
inhibition at 60 min, 10 µM (CYP2C9 [2]): 1 ± 0.7%
inhibition at 60 min, 10 µM (CYP2C9 [3]): 7.7 ± 0.4%

O=C1C[C@@H](c2ccc(O)cc2)Oc2cc(O)cc(O)c21 [Naringenin]
inhibition at 60 min, 10 µM (CYP2C9 [2]): 9.1 ± 1.8%
inhibition at 60 min, 10 µM (CYP2C9 [3]): 12 ± 0.7%

COc1cc(O)c2c(c1)OC(c1ccc(O)cc1)CC2=O (racemic) [SKN, (+/−) 7-O-methylnaringenin]
% Inhibition in Pre-Incubation (CYP2C9 [4]): 8.7 ± 1.4%
Amount Remaining at 30 min (%) ([5]; human liver microsomes 0.5 mg/mL, SKN 100 μM): 65.5%
amount of SKN remaining after 60 min of incubation ([5]; human liver microsomes, 60 min): greater than 50%
half-life at 100 µM ([5]; pH 7.4, human liver microsomes): > 60 min
CLint scaled at 100 µM ([5]; pH 7.4, human liver microsomes, read-out: CLint, hepatic): < 20.8 mL/min/kg
inhibition at 60 min, 10 µM (CYP1A2; liver microsomes, 200 μM, SKN 10 μM, 15 min pre-incubation, read-out: % Inhibition in Pre-Incubation): 1.5 ± 2.1%
inhibition at 60 min, 10 µM (CYP1A2; liver microsomes, 200 μM, SKN 10 μM, human liver microsomes, read-out: % Inhibition in Co-Incubation): 0.4 ± 0.5%
Amount Remaining at 30 min (%) ([6]; mouse liver microsomes 1 mg/mL, SKN 100 μM): 4.90%
amount of SKN remaining after 60 min of incubation ([6]; mouse liver microsomes, 60 min): 4.9%
half-life at 100 µM ([6]; pH 7.4, mouse liver microsomes): 5.4 min
CLint scaled at 100 µM ([6]; pH 7.4, mouse liver microsomes, read-out: CLint, hepatic): 565 mL/min/kg
Amount Remaining at 30 min (%) ([7]; NADPH +): 0.0%
t1/2 ([7]; NADPH +): 0.91 min
Amount Remaining at 30 min (%) ([7]; NADPH −): 1.8%
half-life at 100 µM ([7]; NADPH +): 0.9 min
CLint scaled at 100 µM ([7]; NADPH +): 3280 mL/min/kg
half-life at 100 µM ([7]; NADPH −): 3.8 min
CLint scaled at 100 µM ([7]; NADPH −): 802 mL/min/kg
Amount Remaining at 30 min (%) ([8]; dog liver microsomes 1 mg/mL, SKN 100 μM): 18.5%
amount of SKN remaining after 60 min of incubation ([8]; dog liver microsomes, 60 min): 18.5%
half-life at 100 µM ([8]; pH 7.4, dog liver microsomes): 2.7 min
CLint scaled at 100 µM ([8]; pH 7.4, dog liver microsomes, read-out: CLint, hepatic): 641 mL/min/kg
Amount Remaining at 30 min (%) ([9]; NADPH +): 0.0%
Amount Remaining at 30 min (%) ([9]; NADPH −): 17.1%
CLint scaled at 100 µM ([9]; pH 7.4, NADPH +): 557 mL/min/kg
CLint scaled at 100 µM ([9]; pH 7.4, NADPH −): 287 mL/min/kg
half-life at 100 µM ([9]; NADPH +): 2.2 min
half-life at 100 µM ([9]; NADPH −): 4.4 min
CYP3A4-luciferase activity increase [10]: 3.8 fold
